Laboratory results: patent US3968204A, “Antibiotic A-2315” (priority 1975, dated 1976)
Values after ≈ are worked out from the molar mass of the structure shown.

Experiments:
Erwinia amylovora = assay: Agar-dilution MIC; format: cell-based; settings: Agar-Dilution Method
Treponema hyodysenteriae = assay: Agar-dilution MIC, anaerobe; format: cell-based; settings: Brachyspira hyodysenteriae; agar-dilution method; anaerobic
From the text: The A-2315 antibiotics are also active against anaerobic bacteria. In one aspect of this activity, the A-2315 antibiotics are active against Treponema hyodysenteriae, a cause of swine dysentery. The minimal concentrations of A-2315 factors which inhibit this organism, as determined by the agar-dilution method, are as follows: […]

Clostridium ramosum = assay: MIC, anaerobic bacteria; format: cell-based; settings: Thomasclavelia ramosa
Clostridium septicum = assay: MIC, anaerobic bacteria; format: cell-based
Peptococcus anaerobius = assay: MIC, anaerobic bacteria; format: cell-based
[1] = system: Peptostreptococcus intermedius; assay: MIC, anaerobic bacteria; format: cell-based
[2] = system: Bacteriodes fragilis ssp. fragilis; assay: MIC, anaerobic bacteria; format: cell-based
[3] = system: Bacteriodes fragilis ssp. thetaotamicron; assay: MIC, anaerobic bacteria; format: cell-based
Fusobacterium nucleatum = assay: MIC, anaerobic bacteria; format: cell-based
Veillonella alcalescens = assay: MIC, anaerobic bacteria; format: cell-based; settings: Veillonella parvula
[4] = system: Staphylococcus aureus 3055; assay: Protection of mice against experimental bacterial infection; format: in vivo; settings: Staphylococcus aureus, 3055, sc, subcutaneous, two doses
Description: (§1) When two doses each of A-2315 factors were administered to mice in illustrative infections, the ED50 values [effective dose in mg/kg to protect 50 percent of the test aninals; see Warren Wick, et al., J. Bacteriol.
^ 2 Infecting challenges: S. aureus 3.16 × LD50 (ip)

Streptococcus pyogenes = assay: as above; format: in vivo; settings: sc, subcutaneous, two doses
Description: as §1

Acute toxicity in mice = format: in vivo
Description: The acute toxicity of antibiotic A-2315 factor A, administered either orally or subcutaneously to mice and expressed as LDo, is greater than 500 mg./kg. The acute toxicities of the A-2315 factors, administered intraperitoneally to mice and expressed as LD50 are as follows: […]

[5] = system: Mycoplasma gallisepticum isolate 34159 (tylosin resistant); assay: Broth-dilution MIC; format: cell-based; settings: Mycoplasmoides gallisepticum
From the text: (§2) Another useful property of the A-2315 antibiotics is activity against Mycoplasma gallisepticum, an organism pathogenic for poultry. Of particular interest is the activity of the A-2315 antibiotics against strains of this organism that are resistant to tylosin. The minimal inhibitory concentrations of A-2315 factor A, as determined by in vitro broth-dilution studies, are summarized in Table V below: […]

[6] = system: Mycoplasma gallisepticum isolate 38502 (tylosin sensitive); assay: Broth-dilution MIC; format: cell-based; settings: Mycoplasmoides gallisepticum
From the text: as §2

[7] = system: Mycoplasma gallisepticum isolate 41313 (tylosin resistant); assay: Broth-dilution MIC; format: cell-based; settings: Mycoplasmoides gallisepticum
From the text: as §2

[8] = system: Mycoplasma gallisepticum isolate 42854 (tylosin resistant); assay: Broth-dilution MIC; format: cell-based; settings: Mycoplasmoides gallisepticum
From the text: as §2

[9] = system: Mycoplasma gallisepticum isolate 43480 (tylosin resistant); assay: Broth-dilution MIC; format: cell-based; settings: Mycoplasmoides gallisepticum
From the text: as §2

Streptococcus mutans = assay: Broth-dilution growth inhibition of cariogenic organism; format: cell-based; settings: read-out: growth inhibiting concentration
Description: (§3) In another aspect of the present invention, the A-2315 antibiotics have the ability to inhibit the growth of microorganisms contributing to the development of periodontal disease. In broth-dilution tests, A-2315 factor A inhibits the growth of the cariogenic organism Streptococcus mutans at concentrations of 1-2 μg/ml and inhibits the growth of cariogenic filamentous rods at a concentration as low as 0.1 μg/ml.

[10] = system: cariogenic filamentous rods; assay: as above; format: cell-based; settings: read-out: growth inhibiting concentration (as low as)
Description: as §3

[11] = system: bean rust (Uromyces phaseoli var. typica); assay: Plant-fungicidal activity on bean plants; format: in vivo; settings: 400 ppm
From the text: In yet another aspect of the invention, the A-2315 antibiotics are useful as plant-fungicidal agents.

Electrometric titration = format: physicochemical; settings: 66 percent dimethylformamide in water
Description: Antibiotic A-2315 factor A is a white, amorphous solid, having a molecular weight of 503.2638, as determined by mass spectrometry, and an elemental analysis as follows: 61.51 percent carbon, 7.51 percent hydrogen, 8.69 percent nitrogen, and 21.53 percent oxygen. […] The specific rotation of A-2315 factor A is -132° when determined at a temperature of 27°C. in methanol in which the concentration of the antibiotic is 0.375 percent on a weight per volume basis.
Antibiotic A-2315 factor B is a white, amorphous solid, having a molecular weight of 501, as determined by mass spectrometry, and an elemental analysis as follows: 61.81 percent carbon, 7.02 percent hydrogen, 8.81 percent nitrogen, and 21.42 percent oxygen.
Antibiotic A-2315 factor C is a white, amorphous solid, having a molecular weight of 487, as determined by mass spectrometry, and an elemental analysis as follows: 61.04 percent carbon, 7.00 percent hydrogen, 7.96 percent nitrogen, and 22.61 percent oxygen. Based on elemental analysis and molecular weight, an empirical formula of C25 H33 N3 O7 is assigned to factor C.

[12] = system: experimental bacterial infections; assay: In vivo antimicrobial action in mice; settings: subcutaneous injection
Description: as §1

[13] = system: Staphylococcus aureus 3130; assay: Disc-plate MIC; settings: Disc-Plate Method; benzylpenicillin-resistant, methicillin-resistant
Sarcina lutea = assay: Disc-plate MIC; settings: Disc-Plate Method
Salmonella typhosa = assay: Disc-plate MIC; settings: Disc-Plate Method
Candida albicans = assay: Disc-plate MIC; settings: Disc-Plate Method

Work on `CC1=CC(O)CC(O)Cc2nc(co2)C(=O)NC(C)C(=O)OC(C(C)C)C(C)C=CC(=O)NCC=C1` (stereo not shown) [Factor A] yielded an MIC (Erwinia amylovora) of 50 µg/mL (≈ 99.3 µM), an MIC (Treponema hyodysenteriae) of under 0.195 µg/mL and an MIC (Clostridium ramosum) of 8 µg/mL (≈ 15.9 µM). It also gave an MIC (Clostridium septicum) of 32 µg/mL (≈ 63.5 µM), an MIC (Peptococcus anaerobius) of 2 µg/mL (≈ 3.97 µM) and an MIC [1] of 8 µg/mL (≈ 15.9 µM). It also gave an MIC [2] of 128 µg/mL (≈ 254 µM), an MIC [3] of 128 µg/mL (≈ 254 µM) and an MIC (Fusobacterium nucleatum) of 128 µg/mL (≈ 254 µM). It also gave an MIC (Veillonella alcalescens) of 16 µg/mL (≈ 31.8 µM), an ED50 ([4]; Test I, challenge 4000 × LD50 (ip)) of 90 mg/kg and an ED50 ([4]; Test II, challenge 3.16 × LD50 (ip)) of 45.7 mg/kg. The ED50 (Streptococcus pyogenes; Test I, challenge 10,000 × LD50 (ip)) was 83 mg/kg, the ED50 (Streptococcus pyogenes; Test II) was 27.4 mg/kg and the LD50 (Acute toxicity in mice; mouse, in vivo, ip, intraperitoneally) was over 400 mg/kg. The “acute toxicity, LDo” value (Acute toxicity in mice; orally) was “greater than 500 mg./kg”, the “acute toxicity, LDo” value (Acute toxicity in mice; subcutaneously) was “greater than 500 mg./kg” and the MIC [5] was 0.195 µg/mL (≈ 0.387 µM). For the same compound, the MIC [6] was under 0.097 µg/mL, the MIC [7] was 0.78 µg/mL (≈ 1.55 µM) and the MIC [8] was 0.195 µg/mL (≈ 0.387 µM). For the same compound, the MIC [9] was under 0.097 µg/mL, the MIC (Streptococcus mutans) was 1 to 2 µg/mL (≈ 1.99 to 3.97 µM) and the MIC [10] was 0.1 µg/mL (≈ 0.199 µM). For the same compound, the “protection of bean plants” value [11] was “protected”, the phytotoxicity ([11]; bean plants) was “Only slight phytotoxicity” and the titratable groups (Electrometric titration) was “did not indicate the presence of titratable groups”. The “in vivo antimicrobial action” value [12] was “have shown in vivo antimicrobial action”, the “solubility in organic solvents” value (Solubility) was “soluble” and the solubility in water (Solubility) was “only slightly soluble”. It also gave an MIC [13] of 0.2 μg/disc, an MIC (Sarcina lutea) of 0.008 μg/disc and an MIC (Salmonella typhosa) of 12.5 μg/disc. It also gave an MIC (Candida albicans) of 100.0 μg/disc.
